Experimental data from PubChem BioAssay AID2086 (NMMLSC, 2009).
The source made the active and inactive calls. How the calls were made is not given here.

What follows are molecules tested against Induced myeloid leukemia cell differentiation protein Mcl-1 (Homo sapiens) (UniProt Q07820) (assay: Mcl-1/Bim interaction regulators – biochemical, bead-based flow cytometry, multiplex, HTS hits, confirmation (AID 2086)). Conditions: Bim-Mcl-1 interaction.
Sequence of Induced myeloid leukemia cell differentiation protein Mcl-1 (Homo sapiens) (Q07820 whole entry, looked up): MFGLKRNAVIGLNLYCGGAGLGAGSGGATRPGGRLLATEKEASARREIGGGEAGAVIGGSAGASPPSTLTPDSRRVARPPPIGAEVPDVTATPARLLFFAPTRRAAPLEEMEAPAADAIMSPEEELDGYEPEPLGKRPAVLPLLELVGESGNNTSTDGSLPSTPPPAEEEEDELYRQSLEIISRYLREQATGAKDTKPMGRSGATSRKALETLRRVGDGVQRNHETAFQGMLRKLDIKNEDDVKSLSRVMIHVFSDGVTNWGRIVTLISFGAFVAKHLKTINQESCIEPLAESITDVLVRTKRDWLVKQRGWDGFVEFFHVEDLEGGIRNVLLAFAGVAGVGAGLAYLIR

Structure (SMILES) | EC50
COc1ccc(N2C(=O)C(Cl)=C(NC3C(=O)N(c4ccccc4)N(C)C3C)C2=O)cc1 (stereo unspecified) | inactive

Same assay, conditions: Bim-Mcl-1 interaction, at 100 µM (top of the series)

Structure (SMILES) | response, inhibition or activation
C=CS(=O)(=O)c1sc(Cl)c(N2CCOCC2)c1[N+](=O)[O-] | inactive
CCN1C(=O)/C(=C\C=C2/C=CC=CN2CC)SC1=S | inactive
CC(=O)OCCCNc1cc(Sc2nc3ccccc3s2)c2nonc2c1[N+](=O)[O-] | inactive
CC(=O)Nc1ccc(-n2cc(-c3ccccc3)[nH]c2=S)cc1 | inactive
CCN(CC)c1ccc(NC(=O)COc2ccccc2C)cc1S(=O)(=O)Nc1ccccc1OC | inactive
O=C1c2ccccc2C(=O)N1CN(C(=O)COc1ccc(Cl)cc1Cl)c1cccc(F)c1 | inactive
O=C(Nc1nnc(COc2ccc(Cl)cc2)s1)c1ccco1 | inactive
O=C1/C(=C\c2ccco2)NC(=S)N1c1ccccc1 | inactive
Cc1ccc(-c2cc(-c3ccc(C)o3)nc(N)c2C#N)cc1 | inactive
O=C1NC(=O)C(=Cc2ccc(-c3cc(Cl)ccc3[N+](=O)[O-])o2)C(=O)N1 | inactive
CCN(CC)C(=O)COC(=O)c1cc(-c2ccco2)nc2ccccc12 | inactive
CNC(CC(=O)c1ccc([N+](=O)[O-])cc1)C(Cl)(Cl)Cl (stereo unspecified) | inactive
S=c1[nH]cc(-c2ccccc2)n1-c1ccccc1 | inactive
O=c1c2c(n3nnnc3n1Cc1ccccc1)-c1ccccc1CC21CCCC1 | inactive
CN(CCO)c1cc(Sc2nc3ccccc3s2)c2nonc2c1[N+](=O)[O-] | inactive
O=C1C(Cl)=C(N2CCN(c3ccccc3[N+](=O)[O-])CC2)C(=O)c2ccccc21 | inactive
COc1ccccc1NC1=C(NC(C)=O)C(=O)c2ccccc2C1=O | inactive
Cc1nnc(Sc2cc(NCCO)c([N+](=O)[O-])c3nonc23)s1 | inactive
O=C(/C=C/c1ccc(-c2ccccc2[N+](=O)[O-])o1)c1ccccc1 | inactive
CCN(CC)c1ccc(NC(=O)c2ccccc2Br)cc1S(=O)(=O)Nc1ccccc1OC | inactive
Oc1ccc(NCc2ccccc2OCc2ccccc2)cc1 | inactive
Cc1cc(-c2cc(-c3ccc(Cl)cc3)nc(N)c2C#N)co1 | inactive
COc1ccccc1-n1c(-c2ccccc2)c[nH]c1=S | inactive
CCOc1ccccc1CNc1ccc(O)cc1 | inactive
Cc1ccc(-c2cc(C(=O)Nc3nccs3)c3ccccc3n2)o1 | inactive
Cc1ccc(-c2cc(-c3ccc(F)cc3)c(C#N)c(N)n2)o1 | inactive
CCN(CC)c1ccc(NC(=O)c2ccccc2F)cc1S(=O)(=O)Nc1ccccc1OC | inactive
O=[N+]([O-])c1c(NCCCO)cc(Sc2nc3ccccc3s2)c2nonc12 | inactive
COc1cc(CNc2ccc3[nH]c(=O)[nH]c3c2)cc(Br)c1OCC(=O)NC(C)(C)C | inactive
Clc1nc(NCc2cccnc2)nc(N2CCOCC2)n1 | inactive
